These are literature values, as cited in patent US20140178367A1, “Methods of Treating Inflammatory Diseases by Targeting the Chemoattractant Cytokine Receptor 2 (CCR2) or Chemokine (C-C motif) Ligand 2 (CCL2)” (THE Brigham and Women's Hospital, Inc., priority 2011, published 2014).

For this series, the system named is patients with ALS.

Molecules are shown by their SMILES.

In the case of `Nc1nc2ccc(OC(F)(F)F)cc2s1` [riluzole], the prolongs life result is listed as “only a few months”.
